Assay results published in patent publication US20080145313A1, “Compositions and Methods for the Treatment and Prevention of Neoplastic Disorders” (Genesis Research & Development Corporation Limited, priority 2006, published 2008).

These substances were tested on A549 cells (assay: Growth inhibition of siRNA-transfected A549 cells, SYBR Green I DNA content). Conditions: 10 nM siRNA; DNA content 96 hours after transfection.
Type: cell-based, human
Procedure: A549 cells (human lung cancer cell line; ATCC No. CCL-185), SK-MeI-5 cells (human melanoma cell line; ATCC No. HTB-70), MCF-7 cells (human adenocarcinoma cell line; ATCC No. HTB-22), HCT-116 cells (colorectal carcinoma; ATCC CCL-247) and HCT-116 p53 null cells (derived from ATCC No. CCL-247; Bunz et al., Science 282:1497-1501, 1998) were cultured in RPMI 1640 medium with 10% v/v heat-inactivated fetal calf serum (FCS). Cells were seeded at a density of 5×10^4 cells/cm^2 in multi-well tissue culture plates. Sequences of Stealth™ siRNA duplexes (Invitrogen) targeting human ribonucleotide reductase subunit 1 (SEQ ID NO: 22) and subunit 2 (SEQ ID NO; 38) are given in SEQ ID NO: 4830-4832 (DNA), and SEQ ID NO: 5136-5138 (RNA) for RRM1, and SEQ ID NO: 5306-5308 (DNA), and SEQ ID NO: 5303-5305 (RNA) for RRM2. siRNAs were transfected at different concentrations into cells using Lipofectamine™ RNAiMAX transfection reagent (Invitrogen). Non-specific siRNA (SEQ ID NO: 4804 and 4805 (DNA), and SEQ ID NO: 5301 and 5302 (RNA)) were used as controls. The cellular DNA content was measured using a SYBR Green I-based fluorometric assay at 24, 48, 72 and 96 hours after transfection (120 hours for the MCF-7 cells), as follows. At the indicated time points following reverse transfection, cells were harvested and frozen at −80° C. overnight. Cells were thawed and cell lysis buffer (phosphate-buffered saline (PBS) containing 1% Triton X-100, pH 7) and SYBR Green I (1:10^5 V/V; Invitrogen) was added to the wells and incubated overnight in the dark at 4° C.
The following day, cell lysates were mixed thoroughly, and DNA fluorescence was measured with a Wallac Victor^2 plate reader (Turku, Finland) set at an excitation frequency of 485 nm and measuring emission at 535 nm.
To determine the duration of the knock-down effect of RRM1-targeting siRNA, A549 cells were reverse transfected with 1 or 10 nM RRM1-3 (SEQ ID NO: 4832 (DNA, and SEQ ID NO: 5138 (RNA)) or control siRNA (SEQ ID NO: 4804 (DNA), and SEQ ID NO: 5301 (RNA)), and growth followed over time. Growth inhibition was measured daily as described above for up to ten days. RRM1-3-mediated RRM1 silencing inhibited growth for at least 10 days post-transfection at both 1 and 10 nM (FIG. 11).
siRNA-mediated inhibition of cancer cell growth was determined in A549 cells as follows. A549 cells (human lung cancer cell line; ATCC No. CCL-185) were cultured in RPMI 1640 medium with 10% v/v heat-inactivated fetal calf serum. Cells were seeded at a density of 5×10^3 cells/cm^2 in multi-well tissue culture plates. Stealth™ siRNA duplexes (Invitrogen) targeting genes involved in cancer energy and metabolism pathways and listed in Table 9, were transfected at 10 nM into cells using Lipofectamine™ RNAiMAX transfection reagent (Invitrogen). Non-specific siRNA (SEQ ID NO: 4804 and 4805 (DNA), and SEQ ID NO: 5301 and 5302 (RNA)) were used as controls. The cellular DNA content was measured using a SYBR Green I-based fluorometric assay at 96 hours after transfection. The cells were harvested and frozen at −80° C. overnight. Cells were thawed and cell lysis buffer (phosphate-buffered saline (PBS) containing 1% Triton X-100, pH 7) and SYBR Green I (1:10^5 v/v; Invitrogen) was added to the wells and incubated overnight in the dark at 4° C. The following day, cell lysates were mixed thoroughly, and DNA fluorescence was measured with a Wallac Victor^2 plate reader (Turku, Finland) set at an excitation frequency of 485 nm and measuring emission at 535 nm.
Three different siRNAs were tested for each target gene. The average fluorescence units from three replicate wells, representing the amount of DNA per well, were used to determine the effect on growth inhibition. The results are given in Table 10 (energy and metabolism gene targets) and Table 11 (transporter gene targets).
siRNA-mediated RNAi was also determined on a panel of different cell lines. […]

Which “Growth Inhibition in A549 cells” value does the source give for “SEQ ID NO: 4837: siRNA targeting DHFR (chain 1 TTTCAAAGTCTTGCATGATCCTTGT; chain 2 UUUCAAAGUCUUGCAUGAUCCUUGU; chemistry not given here; one strand in two spellings)” here?
Its value is “− (no growth inhibition with any siRNA)”.

Which “Growth Inhibition in A549 cells” value does the source give for “SEQ ID NO: 4838: siRNA targeting DHFR (chain 1 TTCTGGCAGAAGTTTATATTTCTCC; chain 2 UUCUGGCAGAAGUUUAUAUUUCUCC; chemistry not given here; one strand in two spellings)” here?
The value was “+ (inhibits by at least 50%)”.

“SEQ ID NO: 4839: siRNA targeting AK1 (chain 1 TTCTGCACGATCTTCTCACACTGGG; chain 2 UUCUGCACGAUCUUCUCACACUGGG; chemistry not given here; one strand in two spellings)” was tested. Which “Growth Inhibition in A549 cells” value did it give?
Its value is “− (no growth inhibition with any siRNA)”.

“SEQ ID NO: 4840: siRNA targeting AK1 (chain 1 TAGCCATCAATCAGGAAGCCTTTGG; chain 2 UAGCCAUCAAUCAGGAAGCCUUUGG; chemistry not given here; one strand in two spellings)” was tested. Which “Growth Inhibition in A549 cells” value did it give?
Its value is “+ (inhibits by at least 50%)”.

With “SEQ ID NO: 4841: siRNA targeting AK1 (chain 1 AAACTCTTCTCCTTGCTGCACCTCC; chain 2 AAACUCUUCUCCUUGCUGCACCUCC; chemistry not given here; one strand in two spellings)” as the substance, how does the “Growth Inhibition in A549 cells” value read?
The value was “− (no growth inhibition with any siRNA)”.

For “SEQ ID NO: 4842: siRNA targeting NADSYN (chain 1 TAGCTGATCTGGTTCACGATGGTGC; chain 2 UAGCUGAUCUGGUUCACGAUGGUGC; chemistry not given here; one strand in two spellings)”, which “Growth Inhibition in A549 cells” value is on record?
The value was “+ (inhibits by at least 50%)”.

“SEQ ID NO: 4843: siRNA targeting NADSYN (chain 1 ATGAGCTGCAAACAGAGGGCTCTTC; chain 2 AUGAGCUGCAAACAGAGGGCUCUUC; chemistry not given here; one strand in two spellings)” was tested. Which “Growth Inhibition in A549 cells” value did it give?
The value was “− (no growth inhibition with any siRNA)”.

“SEQ ID NO: 4844: siRNA targeting NADSYN (chain 1 TTTCTATGCACCGAAACTGCCAAGG; chain 2 UUUCUAUGCACCGAAACUGCCAAGG; chemistry not given here; one strand in two spellings)” was tested. Which “Growth Inhibition in A549 cells” value did it give?
The value was “− (no growth inhibition with any siRNA)”.

Which “Growth Inhibition in A549 cells” value does the source give for “SEQ ID NO: 4845: siRNA targeting FLAD1 (chain 1 TTTGAGTGGAACTGAACAGCTGGGT; chain 2 UUUGAGUGGAACUGAACAGCUGGGU; chemistry not given here; one strand in two spellings)” here?
The value was “+ (inhibits by at least 50%)”.

For “SEQ ID NO: 4846: siRNA targeting FLAD1 (chain 1 TGATGTGTATCCTCGGTCATACAGG; chain 2 UGAUGUGUAUCCUCGGUCAUACAGG; chemistry not given here; one strand in two spellings)”, which “Growth Inhibition in A549 cells” value is on record?
The value was “− (no growth inhibition with any siRNA)”.

Which “Growth Inhibition in A549 cells” value does the source give for “SEQ ID NO: 4847: siRNA targeting FLAD1 (chain 1 TGCAATGGTGGCTACCTCATCAGGT; chain 2 UGCAAUGGUGGCUACCUCAUCAGGU; chemistry not given here; one strand in two spellings)” here?
Its value is “− (no growth inhibition with any siRNA)”.

For “SEQ ID NO: 4848: siRNA targeting COX5A (chain 1 ATAGCAGCGAACTGACTGGATAGCC; chain 2 AUAGCAGCGAACUGACUGGAUAGCC; chemistry not given here; one strand in two spellings)”, which “Growth Inhibition in A549 cells” value is on record?
The value was “++ (inhibits by at least 75%)”.

“SEQ ID NO: 4849: siRNA targeting COX5A (chain 1 CAATTCCCAGGCATCTATATCTGGC; chain 2 CAAUUCCCAGGCAUCUAUAUCUGGC; chemistry not given here; one strand in two spellings)” was tested. Which “Growth Inhibition in A549 cells” value did it give?
Its value is “− (no growth inhibition with any siRNA)”.

For “SEQ ID NO: 4850: siRNA targeting COX5A (chain 1 ATTTAAAGTTGGTCTAAGTTCCTGG; chain 2 AUUUAAAGUUGGUCUAAGUUCCUGG; chemistry not given here; one strand in two spellings)”, which “Growth Inhibition in A549 cells” value is on record?
Its value is “− (no growth inhibition with any siRNA)”.

With “SEQ ID NO: 4851: siRNA targeting ATP5B (chain 1 TTTCCATGAACTCTGGAGCCTCAGC; chain 2 UUUCCAUGAACUCUGGAGCCUCAGC; Both strands are one antisense strand in DNA/RNA notation, chemistry not given here, further chemistry not given here; one strand in two spellings)” as the substance, how does the “Growth Inhibition in A549 cells” value read?
The value was “− (no growth inhibition with any siRNA)”.

For “SEQ ID NO: 4852: siRNA targeting ATP5B (chain 1 AATCATTGCCTTCACGGGTCCTCTC; chain 2 AAUCAUUGCCUUCACGGGUCCUCUC; Both strands are one antisense strand in DNA/RNA notation, chemistry not given here, further chemistry not given here; one strand in two spellings)”, which “Growth Inhibition in A549 cells” value is on record?
The value was “− (no growth inhibition with any siRNA)”.

For “SEQ ID NO: 4853: siRNA targeting ATP5B (chain 1 TATACCAGCGCTACCTTAGAGGTGG; chain 2 UAUACCAGCGCUACCUUAGAGGUGG; Both strands are one antisense strand in DNA/RNA notation, chemistry not given here, further chemistry not given here; one strand in two spellings)”, which “Growth Inhibition in A549 cells” value is on record?
Its value is “+ (inhibits by at least 50%)”.

“SEQ ID NO: 4854: siRNA targeting FASN (chain 1 ATGAAGCTCACCCAGTTATCCTTCC; chain 2 AUGAAGCUCACCCAGUUAUCCUUCC; Both strands are one antisense strand in DNA/RNA notation, chemistry not given here, further chemistry not given here; one strand in two spellings)” was tested. Which “Growth Inhibition in A549 cells” value did it give?
Its value is “− (no growth inhibition with any siRNA)”.

Which “Growth Inhibition in A549 cells” value does the source give for “SEQ ID NO: 4855: siRNA targeting FASN (chain 1 TTGGAAGGCACATCCCAGAGGAAGT; chain 2 UUGGAAGGCACAUCCCAGAGGAAGU; Both strands are one antisense strand in DNA/RNA notation, chemistry not given here, further chemistry not given here; one strand in two spellings)” here?
The value was “+ (inhibits by at least 50%)”.

With “SEQ ID NO: 4856: siRNA targeting FASN (chain 1 CTTCGATGTATTCAAATGACTCAGG; chain 2 CUUCGAUGUAUUCAAAUGACUCAGG; Both strands are one antisense strand in DNA/RNA notation, chemistry not given here, further chemistry not given here; one strand in two spellings)” as the substance, how does the “Growth Inhibition in A549 cells” value read?
The value was “− (no growth inhibition with any siRNA)”.
